Measurements from PubChem BioAssay (NCI).
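Five compound concentrations were applied to cells in 96-well plates for 48 hours; endpoints were derived by simple linear interpolation of the resulting dose-response curve. TGI denotes the concentration required for complete inhibition of growth.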

Assays:
Experiment in all cases: NCI tumour cell line growth inhibition, 48 h
NCI-H226 lung = system: NCI-H226 lung
BT-549 breast = system: BT-549 breast
U251 CNS = system: U251 CNS
MDA-N = system: MDA-N
SW-620 colon = system: SW-620 colon
A549 NSCLC = system: A549 NSCLC
OVCAR-5 ovarian = system: OVCAR-5 ovarian
SF-295 CNS = system: SF-295 CNS
NCI-H23 lung = system: NCI-H23 lung
SK-MEL-28 melanoma = system: SK-MEL-28 melanoma
LOX IMVI melanoma = system: LOX IMVI melanoma
CCRF-CEM leukemia = system: CCRF-CEM leukemia
MALME-3M melanoma = system: MALME-3M melanoma
HCC-2998 colon = system: HCC-2998 colon
SF-268 CNS = system: SF-268 CNS
SK-MEL-5 melanoma = system: SK-MEL-5 melanoma
KM12 colon = system: KM12 colon
SNB-19 CNS = system: SNB-19 CNS
A498 renal = system: A498 renal
HL-60(TB) leukemia = system: HL-60(TB) leukemia
RXF 393 renal = system: RXF 393 renal
OVCAR-3 ovarian = system: OVCAR-3 ovarian
786-0 renal = system: 786-0 renal
OVCAR-8 ovarian = system: OVCAR-8 ovarian
ACHN renal = system: ACHN renal
HCT-15 colon = system: HCT-15 colon
MCF7 breast = system: MCF7 breast
K-562 leukemia = system: K-562 leukemia
RPMI-8226 leukemia = system: RPMI-8226 leukemia
MDA-MB-231 breast = system: MDA-MB-231 breast
SF-539 CNS = system: SF-539 CNS
HCT-116 colon = system: HCT-116 colon
UACC-257 melanoma = system: UACC-257 melanoma
COLO 205 colon = system: COLO 205 colon
HOP-62 NSCLC = system: HOP-62 NSCLC
HOP-92 NSCLC = system: HOP-92 NSCLC
SNB-75 CNS = system: SNB-75 CNS
OVCAR-4 ovarian = system: OVCAR-4 ovarian
MOLT-4 leukemia = system: MOLT-4 leukemia
PC-3 prostate = system: PC-3 prostate
TK-10 renal = system: TK-10 renal
UACC-62 melanoma = system: UACC-62 melanoma
UO-31 renal = system: UO-31 renal
SN12C renal = system: SN12C renal
MDA-MB-435 = system: MDA-MB-435
DU-145 prostate = system: DU-145 prostate
EKVX NSCLC = system: EKVX NSCLC
SK-OV-3 ovarian = system: SK-OV-3 ovarian
HT29 colon = system: HT29 colon
CAKI-1 renal = system: CAKI-1 renal
NCI-H460 lung = system: NCI-H460 lung
NCI/ADR-RES ovarian = system: NCI/ADR-RES ovarian
SK-MEL-2 melanoma = system: SK-MEL-2 melanoma
NCI-H522 lung = system: NCI-H522 lung
HS 578T breast = system: HS 578T breast
IGROV1 ovarian = system: IGROV1 ovarian
SR leukemia = system: SR leukemia
T-47D breast = system: T-47D breast

SMILES: CCCCS/C(=C(/C#N)C(N)=O)c1cc2c([nH]1)CCCC2
- TGI (NCI-H226 lung): 34.7 µM
- TGI (BT-549 breast): 27.8 µM
- TGI (U251 CNS): 31.2 µM
- TGI (MDA-N): 18.3 µM
- TGI (SW-620 colon): 24.6 µM
- TGI (A549 NSCLC): > 100 µM
- TGI (OVCAR-5 ovarian): > 100 µM
- TGI (SF-295 CNS): 28.5 µM
- TGI (NCI-H23 lung): 36.7 µM
- TGI (SK-MEL-28 melanoma): 28.2 µM
- TGI (LOX IMVI melanoma): 21.1 µM
- TGI (CCRF-CEM leukemia): 48.9 µM
- TGI (MALME-3M melanoma): 23.8 µM
- TGI (HCC-2998 colon): 26.7 µM
- TGI (SF-268 CNS): 26.7 µM
- TGI (SK-MEL-5 melanoma): 26.7 µM
- TGI (KM12 colon): 23.5 µM
- TGI (SNB-19 CNS): 34.4 µM
- TGI (A498 renal): 31.4 µM
- TGI (HL-60(TB) leukemia): 11.6 µM
- TGI (RXF 393 renal): 38.6 µM
- TGI (OVCAR-3 ovarian): 36.5 µM
- TGI (786-0 renal): 24 µM
- TGI (OVCAR-8 ovarian): 36.5 µM
- TGI (ACHN renal): 39.7 µM
- TGI (HCT-15 colon): 21.4 µM
- TGI (MCF7 breast): 50.4 µM
- TGI (K-562 leukemia): > 100 µM
- TGI (RPMI-8226 leukemia): 29.6 µM
- TGI (MDA-MB-231 breast): 30.3 µM
- TGI (SF-539 CNS): 30 µM
- TGI (HCT-116 colon): 23 µM
- TGI (UACC-257 melanoma): 32.4 µM
- TGI (COLO 205 colon): 27.9 µM
- TGI (HOP-62 NSCLC): 72 µM
- TGI (HOP-92 NSCLC): 38.7 µM
- TGI (SNB-75 CNS): 29.1 µM
- TGI (OVCAR-4 ovarian): 36.1 µM
- TGI (MOLT-4 leukemia): 38.6 µM
- TGI (PC-3 prostate): 46.5 µM
- TGI (TK-10 renal): 29 µM
- TGI (UACC-62 melanoma): 22.8 µM
- TGI (UO-31 renal): 25.8 µM
- TGI (SN12C renal): 43.1 µM
- TGI (MDA-MB-435): 11.9 µM
- TGI (DU-145 prostate): 25.4 µM
- TGI (EKVX NSCLC): 24.4 µM
- TGI (SK-OV-3 ovarian): 93.8 µM
- TGI (HT29 colon): 15 µM
- TGI (CAKI-1 renal): 29.5 µM
- TGI (NCI-H460 lung): 48.3 µM
- TGI (NCI/ADR-RES ovarian): 28.6 µM
- TGI (SK-MEL-2 melanoma): 34.7 µM

SMILES: CS(=O)(=O)Nc1ccc2c(c1)N(S(C)(=O)=O)CC2COS(C)(=O)=O (configuration not stated)
- TGI (NCI-H226 lung): > 100 µM
- TGI (BT-549 breast): > 100 µM
- TGI (U251 CNS): 59.2 µM
- TGI (MDA-N): > 100 µM
- TGI (SW-620 colon): > 100 µM
- TGI (NCI-H522 lung): 43.1 µM
- TGI (A549 NSCLC): > 100 µM
- TGI (OVCAR-5 ovarian): > 100 µM
- TGI (SF-295 CNS): > 100 µM
- TGI (NCI-H23 lung): > 100 µM
- TGI (SK-MEL-28 melanoma): > 100 µM
- TGI (LOX IMVI melanoma): > 100 µM
- TGI (CCRF-CEM leukemia): > 100 µM
- TGI (MALME-3M melanoma): > 100 µM
- TGI (HCC-2998 colon): > 100 µM
- TGI (SK-MEL-5 melanoma): 40.7 µM
- TGI (KM12 colon): > 100 µM
- TGI (HS 578T breast): > 100 µM
- TGI (A498 renal): > 100 µM
- TGI (HL-60(TB) leukemia): 88.3 µM
- TGI (IGROV1 ovarian): > 100 µM
- TGI (RXF 393 renal): 41.5 µM
- TGI (OVCAR-3 ovarian): > 100 µM
- TGI (786-0 renal): > 100 µM
- TGI (OVCAR-8 ovarian): > 100 µM
- TGI (ACHN renal): > 100 µM
- TGI (HCT-15 colon): > 100 µM
- TGI (K-562 leukemia): > 100 µM
- TGI (RPMI-8226 leukemia): 81.4 µM
- TGI (MDA-MB-231 breast): > 100 µM
- TGI (SR leukemia): 93.2 µM
- TGI (SF-539 CNS): > 100 µM
- TGI (HCT-116 colon): > 100 µM
- TGI (UACC-257 melanoma): > 100 µM
- TGI (COLO 205 colon): > 100 µM
- TGI (HOP-62 NSCLC): 70.9 µM
- TGI (HOP-92 NSCLC): > 100 µM
- TGI (SNB-75 CNS): > 100 µM
- TGI (T-47D breast): > 100 µM
- TGI (OVCAR-4 ovarian): > 100 µM
- TGI (MOLT-4 leukemia): > 100 µM
- TGI (PC-3 prostate): > 100 µM
- TGI (TK-10 renal): > 100 µM
- TGI (UACC-62 melanoma): > 100 µM
- TGI (UO-31 renal): > 100 µM
- TGI (SN12C renal): > 100 µM
- TGI (MDA-MB-435): > 100 µM
- TGI (DU-145 prostate): > 100 µM
- TGI (EKVX NSCLC): > 100 µM
- TGI (HT29 colon): > 100 µM
- TGI (CAKI-1 renal): > 100 µM
- TGI (NCI-H460 lung): > 100 µM
- TGI (NCI/ADR-RES ovarian): > 100 µM
- TGI (SK-MEL-2 melanoma): 71.7 µM
